Data reported in US20170055533A1, “AROMATIC PHOSPHATE ESTERS AS AGROCHEMICAL FORMULATION COMPONENT” (priority 2011, published 2017).
“Also recorded” adds a separate entry of the source.

Legend:
Assay type in all cases: in vivo
Tetranychus urticae = assay: Mortality of two spotted spider mite on French bean plants, abamectin with and without phosphate ester; details: for % mortality of Tetranychus urticae: phosphate ester 0.14% v/v, 10 days, larva and adults averaged, lower side of leaves; for mortality of Tetranychus urticae, phosphate ester composition without abamectin: 0.14% v/v phosphate ester, no abamectin present
Method: The efficacy of the aromatic phosphate ester Phosflex® 362 (2-ethylhexyl diphenyl phosphate) as an adjuvant in a composition containing abamectin was tested and compared to the efficacy of an abamectin composition without the Phosflex® 362 present, and to the efficacy of an abamectin composition containing triethyl phosphate. The Phosflex® 362 and the triethyl phosphate were present at 0.14% v/v in the abamectin compositions. The surfactants tristyrylphenol ethoxylate phosphate ester, sodium salt and tristyrylphenol ethoxylate were present in all the abamectin compositions tested.
Two week old French bean (Phaseolus vulgaris) plants were infested with a mixed population of two spotted spider mite Tetranychus urticae. One day after infestation the plants were treated with the test compositions, with a track sprayer from the top with a rate of 200 litres per hectare. Plants were incubated in the greenhouse for 10 days and the evaluation was done on mortality against Larva and Adults, just on the lower side (untreated) of the leaves. Each experiment was replicated twice and the results were averaged. The mortality against Larva and Adults was then averaged.

Septoria tritici [1] = details: conclusion from Table 1
[2] = tested on: Chenopodium album (CHEAL), Abutilon theophrasti (ABUTH), Setaria viridis (SETVI) and Digitaria sanguinalis (DIGSA); assay: Glasshouse weed kill test, nicosulfuron with and without adjuvants; details: conclusion from Table 3
Method: The efficacy of the aromatic phosphate esters tricresyl phosphate, Phosflex® 362 (2-ethylhexyl diphenyl phosphate) and triphenyl phosphate were tested in a glasshouse against four weed species using the herbicide nicosulfuron. An agrochemical composition was prepared containing 0.5% v/v of the adjuvant Atplus® 411 F in a track sprayer, and was applied at a volume of 200 litres per hectare. The other adjuvants were tested at a arte of 0.2% v/v. Nicosulfuron was applied at a rate of either 30 or 60 grams of pesticide per hectare to weeds which had been grown to the 1.3 or 1.4 leaf stage. The weed species were Chenopodium album (CHEAL), Abutilon theophrasti (ABUTH), Setaria viridis (SETVI) and Digitaria sanguinalis (DIGSA).
Each spray test was replicated three times. The efficacy of the herbicide was assessed visually and expressed as a percentage of the leaf area killed. Samples were assessed at time periods of 14 and 21 days following application. The results shown in Table 3 below are mean averages over the two rates of nicosulfuron, three replicates, four weed species and the two assessment timings, and are compared to the efficacy of nicosulfuron in the absence of adjuvant and nicosulfuron in the presence of the known tank mix adjuvant Atplus® 411F.

Septoria tritici [3] = assay: Septoria tritici on wheat plants, cyproconazole with and without phosphate ester adjuvants; details: conclusion from Table 2

## abamectin
Tetranychus urticae; 0.8 ppm abamectin
  % mortality of Tetranychus urticae: 0%
Tetranychus urticae; 3 ppm abamectin
  % mortality of Tetranychus urticae: 20%
Tetranychus urticae; 12.5 ppm abamectin
  % mortality of Tetranychus urticae: 50%

## CCCCC(CC)COP(=O)(Oc1ccccc1)Oc1ccccc1 (stereo not shown) [Phosflex® 362, 2-ethylhexyldiphenyl phosphate]
Septoria tritici [1]
  efficacy as adjuvant for isopyrazam (in words): more efficacious as an adjuvant than any of the other compounds tested
[2]
  efficacy as adjuvant for nicosulfuron (in words): performing particularly well
Septoria tritici [3]
  efficacy as adjuvant for cyproconazole (in words): performed best as an adjuvant out of the compounds tested
Tetranychus urticae
  mortality of Tetranychus urticae, phosphate ester composition without abamectin: no mortality was observed
Tetranychus urticae; conclusion from Table 7
  efficacy as adjuvant for abamectin (in words): more effective control of Tetranychus urticae than the treatment containing abamectin with no adjuvant present; also recorded: considerably more effective than the alkyl phosphate ester triethyl phosphate

## CCOP(=O)(OCC)OCC [triethyl phosphate]
Tetranychus urticae
  mortality of Tetranychus urticae, phosphate ester composition without abamectin: no mortality was observed

## tricresyl phosphate [tricresylphosphate, reference compound]
[2]
  efficacy as adjuvant for nicosulfuron (in words): performing particularly well
